Results from PMC6391272, “Rex in Caldicellulosiruptor bescii: Novel regulon members and its effect on the production of ethanol and overflow metabolites” (MicrobiologyOpen, 2018).

Target: T1, Rex (recombinant Rex, rRex) (Caldicellulosiruptor bescii, UniProt B9MPL7)
T1 construct: E. coli T7 Express; purified with IMPACT kit protocol
T1 sequence (B9MPL7 1-217): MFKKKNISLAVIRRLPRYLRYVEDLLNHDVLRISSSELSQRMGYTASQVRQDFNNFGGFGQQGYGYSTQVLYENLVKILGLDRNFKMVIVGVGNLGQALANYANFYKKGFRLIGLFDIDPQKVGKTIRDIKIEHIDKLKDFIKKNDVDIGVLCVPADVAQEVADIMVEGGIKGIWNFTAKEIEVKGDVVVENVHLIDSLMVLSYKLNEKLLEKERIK
Test: electromobility shift assay (biotin-labelled […] bp operator dsDNA)
Details: room temperature, 30 min; loss of operator DNA binding; NADH/NAD+ cofactor pool 1-100 umol/L

NC(=O)C1=CN([C@@H]2O[C@H](COP(=O)(O)OP(=O)(O)OC[C@H]3O[C@@H](n4cnc5c(N)ncnc54)[C@H](O)[C@@H]3O)[C@@H](O)[C@H]2O)C=CC1 [NADH]
electromobility shift assay (biotin-labelled 50 bp operator dsDNA): DNA binding by Rex is disrupted by NADH and is sensitive to NADH/NAD ^+ ratio
